The numbers were not newly measured in patent US20220054402A1, “COMPOSITIONS AND METHODS FOR EXTRACTING, STABILIZING, AND MAN[…] DOSAGE FORMS OF PSILOCIN, P[…], ENTHEOGENS, AND MEDICINAL MUSHROOMS AS NANO-D[…] DELIVERY STRUCTURES” (priority 2020, published 2022), which cites them from elsewhere.

The target in data set [1] is serotonin 5-HT2A receptor (Homo sapiens, UniProt P28223). The settings on record: psilocin versus psilocybin.
For data set [2] the following is noted: oral ingestion.
For data set [3] the following is noted: β-glucan embedded in chitin cell walls.

Chain of serotonin 5-HT2A receptor (P28223 whole entry): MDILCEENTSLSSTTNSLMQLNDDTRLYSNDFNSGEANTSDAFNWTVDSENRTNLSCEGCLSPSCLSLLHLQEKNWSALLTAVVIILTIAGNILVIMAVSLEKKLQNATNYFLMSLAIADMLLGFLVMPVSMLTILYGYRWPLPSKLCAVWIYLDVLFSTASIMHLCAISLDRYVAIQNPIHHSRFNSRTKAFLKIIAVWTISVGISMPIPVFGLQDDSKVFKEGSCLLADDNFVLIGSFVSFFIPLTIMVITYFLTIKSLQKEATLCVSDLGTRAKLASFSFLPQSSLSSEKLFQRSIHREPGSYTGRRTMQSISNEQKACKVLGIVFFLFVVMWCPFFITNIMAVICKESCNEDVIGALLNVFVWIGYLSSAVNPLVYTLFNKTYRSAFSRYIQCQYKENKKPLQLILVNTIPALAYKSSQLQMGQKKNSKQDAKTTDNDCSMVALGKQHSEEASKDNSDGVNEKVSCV

For `CN(C)CCc1c[nH]c2cccc(O)c12` [Psilocin, 4-hydroxy-NN-dimethyltryptamine], the “affinity for binding the serotonin 5-HT2A receptor relative to psilocybin” value in data set [1] was “more than 200 times”.

Turning to `COc1cc(CCN)cc(OC)c1OC` [Mescaline, 5-trimethoxyphenethylamine], the “reported onset time of effects from ingesting” value in data set [2] was 60 to 180 min.

Regarding β-glucan, in data set [3], the bioavailability result is “less than 5%”.
